Some test systems named below: COLO 205 colon; HCT-15 colon; OVCAR-5 ovarian; OVCAR-8 ovarian; PC-3 prostate; SF-295 CNS; SK-MEL-28 melanoma; SW-620 colon; TK-10 renal; UACC-257 melanoma.
Common to all, as to assay: growth of human tumour cells (NCI), 48 h

Where “and” joins values, the source holds several entries; their conditions need not be identical. Identical values can stand only once.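 1) Cells in 96-well plates. 2) Compound, 48 h, 5 concentrations. 3) Linear interpolation between surrounding doses. 4) Unreached endpoint = highest concentration. The concentration for 50% growth inhibition is given as GI50. TGI: total growth inhibition.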

Among the data in PubChem BioAssay (NCI) are TGI and GI50 values, retold here.

For the compound `N=C(N)C(N=Nc1ccccc1)C(=N)N` (stereo unspecified), the TGI with COLO 205 colon, with HCT-15 colon, in the assay with OVCAR-5 ovarian, with OVCAR-8 ovarian, with PC-3 prostate and with SF-295 CNS was more than 100 µM throughout. Moreover, the TGI with SK-MEL-28 melanoma, in the assay with SW-620 colon, in the assay on TK-10 renal and in the assay on UACC-257 melanoma was more than 100 µM in each case.
In the case of `CN1CCN(CCCOc2ccc3ncnc(Nc4ccc(Oc5cccc(C(F)(F)F)c5)c(Cl)c4)c3c2)CC1`, the GI50 was 1.33 µM in the assay with HCT-15 colon; 1.7 µM with OVCAR-5 ovarian; 2.78 µM in the assay with OVCAR-8 ovarian; 1.71 µM in the assay on PC-3 prostate; 1.66 µM in the assay on SF-295 CNS; 1.63 µM in the assay on SK-MEL-28 melanoma. Also, the GI50 in the assay on SW-620 colon is 1.76 µM; in the assay with TK-10 renal, 1.5 µM; in the assay with UACC-257 melanoma, 1.82 µM. Also, the TGI in the assay with HCT-15 colon is 2.88 µM; in the assay on OVCAR-5 ovarian it was 3.46 µM; in the assay on OVCAR-8 ovarian, 10.7 µM; in the assay on PC-3 prostate, 3.91 µM; in the assay with SF-295 CNS, 3.13 µM; in the assay with SK-MEL-28 melanoma it was 3.01 µM. For the same compound, the TGI stood at 3.45 µM in the assay on SW-620 colon, 3.09 µM in the assay on TK-10 renal and 3.75 µM with UACC-257 melanoma.
With `C=C1C(C2(C)C=CC(=O)OC3(C)COC(=O)CC32)C(OC=O)C(OC(=O)C(O)C(C)CC)C2(C)C(c3ccoc3)CC(OC(C)=O)C12O` (stereo unspecified), the TGI in the assay on COLO 205 colon, in the assay with HCT-15 colon, in the assay with OVCAR-5 ovarian, in the assay on OVCAR-8 ovarian, with PC-3 prostate and with SF-295 CNS was more than 100 µM in each case. Also, the TGI with SK-MEL-28 melanoma, with SW-620 colon, with TK-10 renal and in the assay with UACC-257 melanoma was more than 100 µM throughout.
Regarding `CC(=O)OCCC[C@@H]1C(=C(C)C)CCC2[C@@]1(C)CC[C@@]1(C)C[C@](C)(CCC=C(C)C)CC[C@]21C` (stereo partly specified), the TGI in the assay on COLO 205 colon, with HCT-15 colon, with OVCAR-5 ovarian, with OVCAR-8 ovarian, with PC-3 prostate and in the assay with SF-295 CNS was more than 100 µM throughout. Also, the TGI with SK-MEL-28 melanoma is more than 100 µM; with SW-620 colon, more than 100 µM; in the assay with TK-10 renal, 0.0632 µM; with UACC-257 melanoma, more than 100 µM.
For `O=C1CC(n2cccc2)c2cc(Br)sc21` (stereo unspecified), the TGI with COLO 205 colon, in the assay on HCT-15 colon, with OVCAR-5 ovarian, in the assay on OVCAR-8 ovarian, in the assay on PC-3 prostate and in the assay on SF-295 CNS was more than 100 µM in each case. The TGI in the assay with SK-MEL-28 melanoma, with SW-620 colon, with TK-10 renal and in the assay on UACC-257 melanoma was more than 100 µM throughout.
With `S=C(NCCCCCCNC(=S)Nc1c2ccccc2nc2ccccc12)Nc1c2ccccc2nc2ccccc12`, the TGI in the assay on COLO 205 colon, with HCT-15 colon, with OVCAR-5 ovarian, with OVCAR-8 ovarian, with SF-295 CNS and with SK-MEL-28 melanoma was more than 100 µM throughout. The TGI in the assay with SW-620 colon and with UACC-257 melanoma was more than 100 µM throughout.
As for `CCCCC1Cc2cc(OC)ccc2-c2nc3cc(OC)ccc3n21` (stereo unspecified) (tested in a mixture with another compound), the TGI with COLO 205 colon is 18.7 µM; in the assay on HCT-15 colon, 11.3 µM; in the assay on OVCAR-5 ovarian it was 31.4 µM; with OVCAR-8 ovarian, 31.6 µM; with PC-3 prostate it was 24.7 µM; with SW-620 colon, 27.8 µM. Besides, the TGI in the assay on TK-10 renal stood at 35.5 µM; in the assay with UACC-257 melanoma, 29.9 µM.
`CCN(CC)/C(=C\Cl)Nc1ccccn1`: the TGI in the assay with COLO 205 colon, in the assay on HCT-15 colon, with OVCAR-5 ovarian, in the assay on OVCAR-8 ovarian, in the assay on SF-295 CNS and in the assay on SK-MEL-28 melanoma was more than 100 µM each time. The TGI with SW-620 colon, with TK-10 renal and in the assay with UACC-257 melanoma was more than 100 µM each time.
With `C[N+]1(C)C2CCC1CC(OC(=O)C(CO)c1ccccc1)C2` (stereo unspecified), the TGI in the assay with COLO 205 colon, in the assay on HCT-15 colon, in the assay with OVCAR-5 ovarian, in the assay on OVCAR-8 ovarian, in the assay with PC-3 prostate and with SF-295 CNS was more than 100 µM throughout. For the same compound, the TGI with SK-MEL-28 melanoma, in the assay with SW-620 colon, with TK-10 renal and in the assay on UACC-257 melanoma was more than 100 µM in each case.
With `Cc1c2c(cc3c1[nH]c1ccccc13)C(c1ccc(F)cc1)=NCC2`, the TGI in the assay with COLO 205 colon came out at 2.15 µM; with HCT-15 colon, 12.4 µM; in the assay with OVCAR-5 ovarian, 9.62 µM; in the assay with OVCAR-8 ovarian it was 6.68 µM; with SF-295 CNS, 2.45 µM; in the assay on SK-MEL-28 melanoma, 4.74 µM. In addition, the values for the TGI in the assay with SW-620 colon and in the assay on UACC-257 melanoma were 5.46 µM and 2.46 µM, respectively.
For `NC(=Nc1ccc(Cl)c(Cl)c1)c1ccccc1N`, the TGI was 52.8 µM in the assay with COLO 205 colon; more than 100 µM with HCT-15 colon; more than 100 µM in the assay with OVCAR-5 ovarian; more than 100 µM with OVCAR-8 ovarian; 92.4 µM in the assay with PC-3 prostate; more than 100 µM in the assay with SF-295 CNS. The TGI in the assay with SK-MEL-28 melanoma is 52.2 µM; in the assay on SW-620 colon, more than 100 µM; in the assay with TK-10 renal it was more than 100 µM; in the assay with UACC-257 melanoma, 92.7 µM.
As for `OC1C=C2C3CN(Cc4cc5c(cc43)OCO5)[C@H]2C[C@@H]1O` (stereo partly specified), the TGI in the assay with COLO 205 colon was more than 100 µM; in the assay with HCT-15 colon, 34.1 µM; in the assay with OVCAR-5 ovarian it was 73.3 µM; with OVCAR-8 ovarian it was 91.2 µM; in the assay with PC-3 prostate, 22.6 µM; in the assay with SF-295 CNS, more than 100 µM. Also, the TGI was more than 100 µM in the assay with SK-MEL-28 melanoma, more than 100 µM with SW-620 colon, 39.3 µM in the assay with TK-10 renal and 9.29 µM in the assay on UACC-257 melanoma.
As to `O=C1OC(c2ccccc2)=N/C1=C/c1cccs1`, the TGI in the assay with HCT-15 colon, with OVCAR-5 ovarian, in the assay on OVCAR-8 ovarian, with PC-3 prostate, in the assay with SF-295 CNS and with SK-MEL-28 melanoma was more than 100 µM in each case. Further, the TGI with SW-620 colon, with TK-10 renal and with UACC-257 melanoma was more than 100 µM each time.
With `COC1(OC)C[C@H](C)[C@@]23O[C@]24c2cc(O)c5c(c2N[C@H]3C#C/C=C\C#C[C@]14O)C(=O)c1ccccc1C5=O`, the TGI in the assay with COLO 205 colon was 0.0369 µM; in the assay with HCT-15 colon, 0.24 µM and 0.543 µM; in the assay with OVCAR-5 ovarian, 0.169 µM and 0.111 µM; in the assay with OVCAR-8 ovarian it was 0.048 µM and 0.0756 µM; in the assay on PC-3 prostate, 0.182 µM; in the assay on SF-295 CNS, 0.0076 µM. Moreover, the TGI with SK-MEL-28 melanoma was 0.234 µM and 0.087 µM; in the assay on SW-620 colon it was 0.167 µM and 0.215 µM; in the assay with TK-10 renal, 0.401 µM; with UACC-257 melanoma, 0.0789 µM and 0.0505 µM. Also, the GI50 was 0.0118 µM in the assay on HCT-15 colon; 0.0206 µM in the assay with OVCAR-5 ovarian; 0.0043 µM in the assay on OVCAR-8 ovarian; 0.163 µM with PC-3 prostate; 0.0273 µM with SK-MEL-28 melanoma; 0.00373 µM with SW-620 colon. The GI50 in the assay with UACC-257 melanoma is 0.00624 µM.
As to `O=C1c2scnc2-c2nccc3c2c1nc1ccccc13`, the TGI in the assay on COLO 205 colon was 2.68 µM; in the assay on HCT-15 colon it was 1.28 µM; in the assay with OVCAR-5 ovarian, more than 24.8 µM; with OVCAR-8 ovarian it was 1.21 µM; in the assay on PC-3 prostate it was more than 100 µM; in the assay on SF-295 CNS, 3.6 µM. The values for the TGI in the assay with SK-MEL-28 melanoma and with UACC-257 melanoma were 2.56 µM and 1.69 µM, respectively.
For `CN1CCC23c4ccccc4NC1C21CCN(C)C3Nc2ccccc21`, the TGI in the assay on COLO 205 colon was more than 375 µM; with HCT-15 colon, more than 375 µM; in the assay with OVCAR-5 ovarian, more than 375 µM; in the assay on OVCAR-8 ovarian, more than 37.5 µM; in the assay with SF-295 CNS, more than 375 µM; with SK-MEL-28 melanoma it was more than 375 µM. Moreover, the values for the TGI in the assay on SW-620 colon and in the assay with UACC-257 melanoma were more than 375 µM and 231 µM, respectively.
For `O=C1CS(=O)(=O)C(c2cccc(Oc3ccccc3)c2)N1c1cccc(Cl)c1Cl` (stereo unspecified), the TGI is 67.8 µM in the assay on COLO 205 colon; more than 100 µM in the assay with OVCAR-5 ovarian; 60.1 µM in the assay with OVCAR-8 ovarian; 89.9 µM with PC-3 prostate; more than 100 µM in the assay on SF-295 CNS; more than 100 µM in the assay with SK-MEL-28 melanoma. Besides, the TGI in the assay on SW-620 colon is more than 100 µM; in the assay on TK-10 renal, 67.3 µM; in the assay on UACC-257 melanoma, 51.2 µM.
In the case of `O=c1c2c([nH]c3nccn13)CCCC2`, the TGI with COLO 205 colon, with HCT-15 colon, with OVCAR-5 ovarian, in the assay with OVCAR-8 ovarian, with PC-3 prostate and in the assay with SF-295 CNS was more than 10 µM throughout. Moreover, the TGI in the assay with SK-MEL-28 melanoma, with SW-620 colon and with TK-10 renal was more than 10 µM throughout.
On to `Cc1c(N)nc([C@H](CC(N)=O)NC[C@H](N)C(N)=O)nc1C(=O)N[C@H](C(=O)N[C@H](C)[C@@H](O)[C@H](C)C(=O)N[C@H](C(=O)NCCc1nc(-c2nc(C(=O)NCCC[S+](C)C)cs2)cs1)[C@@H](C)O)C(OC1OC(CO)C(O)C(O)C1OC1OC(CO)C(O)C(OC(N)=O)C1O)c1cnc[nH]1` (stereo partly specified), for which the TGI is 29 µM [middle of 4 runs] with HCT-15 colon; 22.8 µM and 11.2 µM and 15.2 µM with OVCAR-8 ovarian; 25 µM and > 100 µM in the assay with PC-3 prostate; 25 µM and > 29 µM and > 100 µM with SK-MEL-28 melanoma; 24.6 µM and > 100 µM in the assay on UACC-257 melanoma. The GI50 in the assay on OVCAR-8 ovarian is 1.49 µM and 1.59 µM; with PC-3 prostate, 2.63 µM and 5.22 µM; in the assay on SK-MEL-28 melanoma it was > 29 µM and 28.1 µM; with TK-10 renal it was 2.36 µM and 20.4 µM; in the assay on UACC-257 melanoma, 27.5 µM.
